A short description of data set [1]: HPLC of excrement for gnetin C and glycosides (Test Example 7). As to conditions: 14 weeks.
Protocol: (§1) Seven mice were fed ad libitum with the test diet in which 0.5% of gnemonoside A separated and purified in Example 2 was included in the high-fat diet in an amount of 5 g/mouse/day for 14 consecutive weeks, and then 10 mg of their excrement was collected. The excrement thus collected and 10 mg of the excrement collected in Test example 4 were each added with methanol (acetonitrile aqueous solution), suspended by an ultrasonic treatment, and then filtered. The filtrate was washed with hexane and passed through an ODS cartridge, and 20 μL of the elute was applied to an HPLC apparatus.
For data set [2] the following is noted: mouse, in vivo.
Protocol: as §1

This is an account of results in patent publication US20210169113A1, “COMPOSITION FOR IMPROVING INTESTINAL FLORA” (Hosoda SHC Co., Ltd., priority 2018, published 2021).

Like-named read-outs stand apart in the source and are kept apart here.

In the case of gnemonoside A, in data set [1] (0.5% in high-fat diet), the “Fate in the intestinal tract” value was “hydrolyzed and changed to gnetin C in the intestinal tract”. Besides, the “Peaks in HPLC chromatogram of the excrement” value in data set [1] (0.5% of substance in high-fat diet, mice excrement) was “peaks of gnetin C and the monoglucuronide, but not a peak of gnemonoside A, C, or D”.

As for `Oc1ccc(/C=C/c2cc(O)c3c(c2)OC(c2ccc(O)cc2)C3c2cc(O)cc(O)c2)cc1` (stereo not drawn) [gnetin C], in data set [2], the “Peaks in HPLC chromatogram of the excrement” value is “peaks of gnetin C and monoglucuronic acid conjugate of gnetin C”.
